Source: ChEMBL document CHEMBL1201862, “PubChem BioAssay data set” (2004)
Calls of active or inactive are those of the source.

Columns and labels:
[1] = molecular target: T1, Zinc finger protein mex-5 (Caenorhabditis elegans, UniProt Q9XUB2); assay: potency of MEX-5 RNA-binding blockers – biochemical, C. elegans, fluorescence polarization, dose response (AID 1960)
T1 sequence (Q9XUB2 whole entry): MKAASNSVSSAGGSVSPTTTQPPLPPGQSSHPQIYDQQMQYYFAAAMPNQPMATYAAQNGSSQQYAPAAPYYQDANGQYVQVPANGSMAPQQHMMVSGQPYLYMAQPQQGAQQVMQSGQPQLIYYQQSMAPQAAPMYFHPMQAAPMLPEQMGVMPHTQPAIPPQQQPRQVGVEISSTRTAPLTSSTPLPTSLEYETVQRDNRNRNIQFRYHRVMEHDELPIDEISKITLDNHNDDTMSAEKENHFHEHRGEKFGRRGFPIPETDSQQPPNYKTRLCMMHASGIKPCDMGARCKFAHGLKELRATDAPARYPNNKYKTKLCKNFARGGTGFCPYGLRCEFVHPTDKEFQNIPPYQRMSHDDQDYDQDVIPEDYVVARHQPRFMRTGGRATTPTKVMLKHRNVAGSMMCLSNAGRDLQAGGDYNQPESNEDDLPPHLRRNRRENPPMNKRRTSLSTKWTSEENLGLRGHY

[2] = viability loss in HepG2 hepatoma cells – cell-based, ATP luminescence, cherry-pick, activator set 2, cytotoxicity control, dose response (AID 1053143); format: functional
[3] = molecular target: T2, RNA-binding protein pos-1 (Caenorhabditis elegans, UniProt G5EF15); assay: disruptors of C. elegans POS-1 RNA interaction – biochemical, fluorescence polarization, dose response (AID 1964);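 note: purified POS-1 fused to maltose binding protein made in E. coli; potency of compounds blocking POS-1 binding to fluorescent RNA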
T2 sequence (G5EF15 whole entry): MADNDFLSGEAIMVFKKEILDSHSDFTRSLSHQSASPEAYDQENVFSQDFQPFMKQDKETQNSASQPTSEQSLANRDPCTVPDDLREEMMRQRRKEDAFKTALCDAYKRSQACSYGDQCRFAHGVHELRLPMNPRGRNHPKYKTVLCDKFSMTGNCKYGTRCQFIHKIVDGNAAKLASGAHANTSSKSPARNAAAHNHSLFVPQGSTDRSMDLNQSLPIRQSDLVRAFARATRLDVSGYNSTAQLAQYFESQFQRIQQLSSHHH

Ion channel NompC = Ion channel NompC (Danio rerio, UniProt Q7T1G6); assay: Fluorescence counterscreen assay for TRPML3 agonists: dose response cell-based high-throughput screening assay to identify agonists of the transient receptor potential channel N1 (TRPN1). [Related pubchem assays: 1526, 1424, 1448 ]; format: functional
Mucolipin-3 = molecular target: T3, Mucolipin-3 (Homo sapiens, UniProt Q8TDD5); assay: Dose response cell-based high-throughput screening assay for agonists of the transient receptor potential channel ML3 (TRPML3). [Related pubchem assays: 1526, 1424, 1448 ]; format: functional
T3 sequence (Q8TDD5 whole entry): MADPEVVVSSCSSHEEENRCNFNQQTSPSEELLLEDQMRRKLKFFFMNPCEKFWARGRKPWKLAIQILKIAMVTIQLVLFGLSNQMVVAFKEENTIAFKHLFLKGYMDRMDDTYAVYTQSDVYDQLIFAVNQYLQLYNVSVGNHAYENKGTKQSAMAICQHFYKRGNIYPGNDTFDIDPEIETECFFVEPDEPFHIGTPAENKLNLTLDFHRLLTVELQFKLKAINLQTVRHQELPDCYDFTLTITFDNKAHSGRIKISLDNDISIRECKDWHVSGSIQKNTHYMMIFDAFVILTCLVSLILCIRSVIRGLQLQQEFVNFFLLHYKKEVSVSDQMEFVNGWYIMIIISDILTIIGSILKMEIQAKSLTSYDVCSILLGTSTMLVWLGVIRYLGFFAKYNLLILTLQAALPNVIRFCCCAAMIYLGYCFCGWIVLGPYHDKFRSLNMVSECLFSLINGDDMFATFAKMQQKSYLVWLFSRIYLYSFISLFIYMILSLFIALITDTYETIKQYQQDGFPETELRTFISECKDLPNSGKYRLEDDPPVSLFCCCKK

[4] = molecular target: T4, Disintegrin and metalloproteinase domain-containing protein 17 (Homo sapiens, UniProt P78536); assay: exosite inhibitors of ADAM17, dose response, biochemical (AID 743260)
T4 sequence (P78536 whole entry, the tested form may be a part): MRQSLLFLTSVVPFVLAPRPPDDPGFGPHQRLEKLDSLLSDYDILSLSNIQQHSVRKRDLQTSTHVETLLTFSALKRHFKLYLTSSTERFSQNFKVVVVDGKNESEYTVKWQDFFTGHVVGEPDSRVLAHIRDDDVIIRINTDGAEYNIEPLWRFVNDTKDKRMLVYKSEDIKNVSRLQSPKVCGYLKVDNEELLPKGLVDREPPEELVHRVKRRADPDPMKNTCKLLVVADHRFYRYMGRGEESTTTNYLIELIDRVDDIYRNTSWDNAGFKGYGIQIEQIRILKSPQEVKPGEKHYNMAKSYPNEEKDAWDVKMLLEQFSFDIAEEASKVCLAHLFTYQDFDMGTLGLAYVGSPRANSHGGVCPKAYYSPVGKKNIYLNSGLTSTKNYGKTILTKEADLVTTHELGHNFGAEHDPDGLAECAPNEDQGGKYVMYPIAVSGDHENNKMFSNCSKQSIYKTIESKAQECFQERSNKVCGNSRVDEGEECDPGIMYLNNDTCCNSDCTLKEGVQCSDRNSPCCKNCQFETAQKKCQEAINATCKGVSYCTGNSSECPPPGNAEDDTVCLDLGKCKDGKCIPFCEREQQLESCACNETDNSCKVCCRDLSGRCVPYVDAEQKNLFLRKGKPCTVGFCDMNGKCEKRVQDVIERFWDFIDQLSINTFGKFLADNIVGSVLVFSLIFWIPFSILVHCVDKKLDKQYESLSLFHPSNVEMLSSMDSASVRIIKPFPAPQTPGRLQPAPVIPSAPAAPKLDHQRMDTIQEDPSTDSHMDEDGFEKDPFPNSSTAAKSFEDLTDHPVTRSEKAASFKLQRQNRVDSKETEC

[5] = reduced cellular PGC1a acetyl-lysine signal – cell-based, cherry-picked samples, dose response (AID 720514); format: functional;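 note: potency may reflect raised or lowered acetylation signal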
[6] = molecular target: T5, Microphthalmia-associated transcription factor (Homo sapiens, UniProt O75030); assay: reducers of TRPM1 reporter luminescence, concentration series – cell-based, SK-MEL-5, cherry-picked, set 3, MITF inhibitor project, dose response (AID 493073); format: functional;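 note: SK-MEL-5 melanoma cells with luciferase driven by the MITF target TRPM1 promoter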
T5 sequence (O75030 whole entry): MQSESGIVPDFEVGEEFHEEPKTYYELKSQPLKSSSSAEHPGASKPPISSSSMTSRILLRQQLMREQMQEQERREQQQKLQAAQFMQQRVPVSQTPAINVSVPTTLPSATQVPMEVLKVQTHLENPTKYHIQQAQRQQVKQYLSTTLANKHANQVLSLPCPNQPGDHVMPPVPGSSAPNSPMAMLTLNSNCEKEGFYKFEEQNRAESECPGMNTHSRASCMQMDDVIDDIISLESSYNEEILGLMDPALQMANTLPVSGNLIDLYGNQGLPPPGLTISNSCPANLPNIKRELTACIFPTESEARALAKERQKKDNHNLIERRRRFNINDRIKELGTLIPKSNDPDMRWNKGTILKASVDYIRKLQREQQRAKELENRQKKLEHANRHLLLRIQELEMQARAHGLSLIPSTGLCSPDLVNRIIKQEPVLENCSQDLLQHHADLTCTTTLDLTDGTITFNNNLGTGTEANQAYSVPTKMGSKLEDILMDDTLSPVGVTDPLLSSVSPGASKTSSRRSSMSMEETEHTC

[7] = potency of ADAM10 substrate cleavage blockers – biochemical, QFRET, dose response (AID 743254);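 note: ADAM10 enzyme with the DM2 quenched FRET peptide as substrate; EDANS fluorescence gain as the protease cuts the substrate; inhibitor potency against ADAM10 proteolytic activity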
[8] = molecular target: T4, Disintegrin and metalloproteinase domain-containing protein 17; assay: inhibition of ADAM17 substrate cleavage – biochemical, quenched FRET substrate, counter-screen for ADAM10 exosite inhibitor project, dose response (AID 743253)
[9] = molecular target: T6, Rac GTPase-activating protein 1 (Homo sapiens, UniProt Q9H0H5); assay: blockers of MgcRacGAP-driven Rac1 GTP hydrolysis – biochemical, ADP Hunter fluorescence, primary and confirmatory, confirmation (AID 624330); format: functional
T6 sequence (Q9H0H5 whole entry): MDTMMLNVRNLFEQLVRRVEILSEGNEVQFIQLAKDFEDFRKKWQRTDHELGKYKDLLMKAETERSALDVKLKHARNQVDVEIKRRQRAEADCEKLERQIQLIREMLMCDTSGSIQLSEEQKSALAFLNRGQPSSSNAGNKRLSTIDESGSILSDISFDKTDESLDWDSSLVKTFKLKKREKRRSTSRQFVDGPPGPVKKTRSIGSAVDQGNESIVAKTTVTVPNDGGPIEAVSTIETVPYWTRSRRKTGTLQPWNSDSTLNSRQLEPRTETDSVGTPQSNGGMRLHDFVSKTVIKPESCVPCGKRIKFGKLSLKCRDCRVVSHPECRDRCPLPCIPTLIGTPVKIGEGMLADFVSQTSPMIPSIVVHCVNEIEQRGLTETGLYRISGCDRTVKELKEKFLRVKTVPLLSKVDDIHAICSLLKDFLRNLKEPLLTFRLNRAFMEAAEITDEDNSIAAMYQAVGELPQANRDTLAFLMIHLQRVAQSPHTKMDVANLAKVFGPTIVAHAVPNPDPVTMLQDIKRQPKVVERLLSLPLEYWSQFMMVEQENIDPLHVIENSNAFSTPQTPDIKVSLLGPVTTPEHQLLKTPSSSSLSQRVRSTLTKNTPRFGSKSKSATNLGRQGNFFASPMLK

[10] = viability loss in HeLa cells – cytotoxicity control for MgcRacGAP inhibitor project, dose response (AID 624300); format: functional
[11] = Counterscreen for activators of the function of SWI/SNF related, matrix associated, actin dependent regulator of chromatin, subfamily a, member 2 (SMARCA2, BRM): Luminescence-based cell-based high throughput dose response assay to identify non-selective compounds using the VP16 reporter assay.; format: functional
[12] = molecular target: SWI/SNF-related matrix-associated actin-dependent regulator of chromatin subfamily A member 2 (Homo sapiens, UniProt P51531); assay: Luminescence-based cell-based high throughput dose response assay to identify activators of the function of SWI/SNF related, matrix associated, actin dependent regulator of chromatin, subfamily a, member 2 (SMARCA2, BRM).; format: functional
SWI/SNF-related matrix-associated actin-dependent regulator of chromatin subfamily A member 2, sequence (P51531 whole entry, the tested form may be a part): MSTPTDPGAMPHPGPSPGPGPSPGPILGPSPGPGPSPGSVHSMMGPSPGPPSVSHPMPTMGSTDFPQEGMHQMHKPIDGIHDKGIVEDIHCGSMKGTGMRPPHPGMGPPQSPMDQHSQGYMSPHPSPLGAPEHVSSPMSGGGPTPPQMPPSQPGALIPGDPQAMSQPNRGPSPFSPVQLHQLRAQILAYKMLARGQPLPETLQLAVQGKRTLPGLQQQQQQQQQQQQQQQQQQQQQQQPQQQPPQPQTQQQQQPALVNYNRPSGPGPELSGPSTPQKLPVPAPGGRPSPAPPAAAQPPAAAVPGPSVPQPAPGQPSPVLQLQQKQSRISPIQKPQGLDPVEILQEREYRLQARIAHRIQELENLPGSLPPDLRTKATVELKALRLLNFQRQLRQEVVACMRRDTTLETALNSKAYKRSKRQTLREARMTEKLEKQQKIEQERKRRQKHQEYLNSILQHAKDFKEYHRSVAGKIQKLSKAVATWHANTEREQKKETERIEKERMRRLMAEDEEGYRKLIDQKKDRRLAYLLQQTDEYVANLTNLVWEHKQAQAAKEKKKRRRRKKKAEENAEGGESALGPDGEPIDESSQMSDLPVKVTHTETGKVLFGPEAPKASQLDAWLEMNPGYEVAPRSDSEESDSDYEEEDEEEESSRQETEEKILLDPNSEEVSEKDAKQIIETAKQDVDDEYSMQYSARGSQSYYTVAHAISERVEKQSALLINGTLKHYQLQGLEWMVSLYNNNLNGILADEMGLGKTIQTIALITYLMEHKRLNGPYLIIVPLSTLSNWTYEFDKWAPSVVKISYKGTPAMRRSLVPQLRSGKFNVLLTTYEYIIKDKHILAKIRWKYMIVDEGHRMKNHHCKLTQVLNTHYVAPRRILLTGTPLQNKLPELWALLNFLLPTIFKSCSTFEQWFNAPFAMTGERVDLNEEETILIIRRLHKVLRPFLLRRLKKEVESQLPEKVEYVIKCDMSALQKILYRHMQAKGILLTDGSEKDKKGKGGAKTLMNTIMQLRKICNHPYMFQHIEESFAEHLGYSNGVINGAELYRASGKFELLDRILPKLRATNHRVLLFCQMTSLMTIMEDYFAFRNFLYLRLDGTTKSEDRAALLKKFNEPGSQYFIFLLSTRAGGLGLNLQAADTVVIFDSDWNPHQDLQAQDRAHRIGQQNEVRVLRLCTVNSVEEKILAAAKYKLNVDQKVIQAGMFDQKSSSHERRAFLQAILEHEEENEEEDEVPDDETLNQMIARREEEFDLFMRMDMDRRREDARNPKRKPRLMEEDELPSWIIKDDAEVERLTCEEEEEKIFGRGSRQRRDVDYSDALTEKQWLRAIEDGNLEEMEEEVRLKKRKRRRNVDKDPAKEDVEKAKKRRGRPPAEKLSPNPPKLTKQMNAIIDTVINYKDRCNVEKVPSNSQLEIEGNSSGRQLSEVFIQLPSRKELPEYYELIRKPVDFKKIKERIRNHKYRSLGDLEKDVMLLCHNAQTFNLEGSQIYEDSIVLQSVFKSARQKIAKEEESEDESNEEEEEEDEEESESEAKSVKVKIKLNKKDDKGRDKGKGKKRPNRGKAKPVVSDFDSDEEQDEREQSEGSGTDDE

[13] = molecular target: E3 ubiquitin-protein ligase UHRF1 (Homo sapiens, UniProt Q96T88); assay: Counterscreen for inhibitors of 5-meCpG-binding domain protein 2 (MBD2): TRFRET-based biochemical high throughput dose response assay to identify inhibitors of binding of ubiquitin-like with PHD and ring finger domains 1 (UHRF1) to methylated oligonucleotide.
E3 ubiquitin-protein ligase UHRF1, sequence (Q96T88 whole entry, the tested form may be a part): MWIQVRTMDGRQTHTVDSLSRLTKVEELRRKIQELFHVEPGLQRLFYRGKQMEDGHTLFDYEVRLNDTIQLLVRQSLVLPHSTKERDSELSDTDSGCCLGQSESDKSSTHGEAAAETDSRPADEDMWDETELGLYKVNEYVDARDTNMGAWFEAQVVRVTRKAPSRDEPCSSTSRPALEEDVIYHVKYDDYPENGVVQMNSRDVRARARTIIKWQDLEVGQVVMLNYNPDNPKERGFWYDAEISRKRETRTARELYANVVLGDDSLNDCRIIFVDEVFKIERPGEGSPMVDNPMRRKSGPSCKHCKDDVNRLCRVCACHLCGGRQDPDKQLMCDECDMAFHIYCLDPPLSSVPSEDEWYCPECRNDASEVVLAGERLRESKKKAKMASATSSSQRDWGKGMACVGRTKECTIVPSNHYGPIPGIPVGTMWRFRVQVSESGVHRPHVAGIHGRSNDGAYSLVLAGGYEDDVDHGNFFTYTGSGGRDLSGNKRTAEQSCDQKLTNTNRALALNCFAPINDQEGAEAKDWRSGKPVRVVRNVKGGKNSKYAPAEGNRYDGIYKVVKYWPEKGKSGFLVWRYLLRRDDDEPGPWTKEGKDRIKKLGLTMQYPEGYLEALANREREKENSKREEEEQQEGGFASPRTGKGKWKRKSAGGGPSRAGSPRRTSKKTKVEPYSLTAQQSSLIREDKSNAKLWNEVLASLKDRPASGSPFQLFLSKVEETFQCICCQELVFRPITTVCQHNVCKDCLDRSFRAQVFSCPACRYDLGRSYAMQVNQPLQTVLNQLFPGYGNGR

HEK293 [14] = assay: cells; conditions: Homo sapiens
HEK293 [15] = assay: cells; conditions: Homo sapiens; remark: listed apart in the source
[16] = molecular target: COUP transcription factor 2 (Homo sapiens, UniProt P24468); assay: Luminescence-based cell-based high throughput dose response assay to identify inhibitors of COUP-TFII (NR2F2).; format: functional;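 note: HEK293 cells transiently cotransfected with COUP-TFII expression vector and reporter; luciferase reporter luminescence driven by COUP-TFII from the pX2-168 reporter plasmid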
COUP transcription factor 2, sequence (P24468 whole entry): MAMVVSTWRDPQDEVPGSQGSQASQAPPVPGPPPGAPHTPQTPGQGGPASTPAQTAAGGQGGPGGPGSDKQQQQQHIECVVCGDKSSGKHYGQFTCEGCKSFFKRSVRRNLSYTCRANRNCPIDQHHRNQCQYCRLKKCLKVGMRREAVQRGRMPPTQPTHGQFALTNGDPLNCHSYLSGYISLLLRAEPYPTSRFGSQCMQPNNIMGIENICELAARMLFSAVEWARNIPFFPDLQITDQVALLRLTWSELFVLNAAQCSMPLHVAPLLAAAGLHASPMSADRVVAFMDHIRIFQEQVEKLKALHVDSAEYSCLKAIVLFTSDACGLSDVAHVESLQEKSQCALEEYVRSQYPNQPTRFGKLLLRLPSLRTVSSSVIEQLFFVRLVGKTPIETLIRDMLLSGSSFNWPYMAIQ

Paired box protein Pax-8 = Paired box protein Pax-8 (Homo sapiens, UniProt Q06710); assay: PAX8 transcriptional activity inhibition in RMG-I – RMG-I cells, luciferase, cherry-pick, dose response (AID 687027); format: functional, cell-based;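 note: luciferase reporter driven by Pax8 target thyroperoxidase promoter measured by SteadyGlo luminescence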
Paired box protein Pax-8, sequence (Q06710 whole entry): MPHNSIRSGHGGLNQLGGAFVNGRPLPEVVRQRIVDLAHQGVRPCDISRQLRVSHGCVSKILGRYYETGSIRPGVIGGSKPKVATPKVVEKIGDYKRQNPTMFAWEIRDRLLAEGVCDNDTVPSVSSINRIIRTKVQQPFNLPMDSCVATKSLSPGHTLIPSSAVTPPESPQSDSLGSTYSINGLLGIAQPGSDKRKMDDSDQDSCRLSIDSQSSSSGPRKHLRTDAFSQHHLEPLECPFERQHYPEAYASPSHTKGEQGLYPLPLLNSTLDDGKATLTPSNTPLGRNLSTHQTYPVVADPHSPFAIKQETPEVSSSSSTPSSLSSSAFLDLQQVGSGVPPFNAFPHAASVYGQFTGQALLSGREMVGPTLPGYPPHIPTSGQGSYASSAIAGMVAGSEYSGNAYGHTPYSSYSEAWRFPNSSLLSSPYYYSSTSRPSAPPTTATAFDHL

[17] = molecular target: Dual specificity tyrosine-phosphorylation-regulated kinase 1A (Rattus norvegicus, UniProt Q63470); format: biochemical, Homo sapiens
Protein Tat = Protein Tat (Human immunodeficiency virus type 1 group M subtype B (isolate HXB2)(HIV-1), UniProt P04608); format: functional;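 note: tat binding to TAR RNA read out by fluorescence polarization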
Protein Tat, sequence (P04608 whole entry): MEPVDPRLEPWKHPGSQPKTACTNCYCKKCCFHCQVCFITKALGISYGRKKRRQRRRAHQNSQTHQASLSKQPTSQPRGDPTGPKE

[18] = molecular target: G-protein coupled receptor 183 (Homo sapiens, UniProt P32249); assay: SAR confirmation of small molecule antagonists of the EBI2 receptor via a luminescent beta-arrestin assa.; format: functional
G-protein coupled receptor 183, sequence (P32249 whole entry): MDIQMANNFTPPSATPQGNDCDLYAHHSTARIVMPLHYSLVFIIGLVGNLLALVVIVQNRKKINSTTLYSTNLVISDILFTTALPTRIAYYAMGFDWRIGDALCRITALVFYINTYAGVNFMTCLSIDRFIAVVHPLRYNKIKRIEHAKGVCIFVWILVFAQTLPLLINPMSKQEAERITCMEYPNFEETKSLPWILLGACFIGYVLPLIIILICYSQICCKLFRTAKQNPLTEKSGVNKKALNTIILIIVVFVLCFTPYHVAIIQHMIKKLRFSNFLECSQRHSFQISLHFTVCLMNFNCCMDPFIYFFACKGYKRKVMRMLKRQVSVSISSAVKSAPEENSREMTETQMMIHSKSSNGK

[19] = P. falciparum Dd2 growth inhibitors, dose response, SYBR Green, cherry-picked samples (AID 1159567); format: functional, cell-based
[20] = Dd2 malaria parasite growth inhibition potency – SYBR Green, dry powder samples, dose response (AID 1159566); format: functional, cell-based;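 note: potency for growth inhibition with lower SYBR green DNA signal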
[21] = growth inhibition of yeast DHODH-expressing 3D7 parasites – SYBR Green, dry powder samples, dose response (AID 1159570); format: functional, cell-based;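 note: parasite growth measured after 72 hours of compound exposure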
[22] = growth inhibition of PfATP4-mutant resistant parasites – NITD609-resistant line, SYBR Green, dry powder, dose response (AID 1159571); format: functional, cell-based;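 note: parasites synchronized at ring stage by sorbitol before testing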
[23] = IC50 of insulin release inhibition, rat insulinoma INS-1E line, 5 mM glucose, cell-based (AID 1117331); format: functional

O=c1c2ccccc2oc2ccc(NCCCn3ccnc3)cc12
EC50 [1]: 50.5 µM (active)
AC50 [2]: > 52 µM (inactive)
EC50 [3]: 55.2 µM (active)

C=C(C)CN1CCN(S(=O)(=O)c2ccc(C)c(N(C)S(=O)(=O)c3ccc(C)cc3)c2C)CC1
EC50 (Ion channel NompC): > 29.9 µM (not active)
EC50 (Mucolipin-3): 2.76 µM (active)
IC50 [4]: > 69.5 µM (inactive)

CCC(=O)N1CCN(c2ccc(Cl)cc2NC(=O)c2ccc([N+](=O)[O-])o2)CC1
AC50 [5]: 29.4 µM (active)
AC50 [6]: 12.4 µM (active)

CCn1nc(C(=O)OC(C(=O)c2c[nH]c3ccccc23)c2ccccc2)c2ccccc2c1=O (stereo not given)
IC50 [7]: > 69.5 µM (inactive)
IC50 [8]: > 69.5 µM (inactive)

CCOc1cc(C2NN=C(c3ccc(C)cc3)S2)ccc1O (stereo not given)
AC50 [2]: > 52 µM (inactive)
IC50 [9]: 112 µM (active)
CC50 [10]: 100 µM (active)

OC(c1ccccc1)(c1nc(-c2ccc(Cl)cc2)cs1)C(F)(F)F (stereo not given)
IC50 [7]: 13.9 µM (inactive)
IC50 [8]: > 69.5 µM (inactive)

Clc1ccc2c(c1)-c1ccccc1C1=NCCN12
EC50 [11]: > 91.3 µM (inactive)
EC50 [12]: 4.65 µM (active)
IC50 [13]: > 43.8 µM (inactive)
EC50 (HEK293 [14]): > 59.5 µM (inactive)
EC50 (HEK293 [15]): > 59.5 µM (inactive)

CCc1cc(-c2nnn(CCC3COCCO3)c2CC)ccc1-c1cn(Cc2ccc3ccccc3c2)nn1 (stereo not given)
IC50 [16]: 10 µM (inactive)

CN(C)CCNc1ccc(CO)c2sc3ccc(O)cc3c(=O)c12
AC50 (Paired box protein Pax-8): 5.72 µM (active)
IC50 [13]: > 43.8 µM (inactive)
AC50 [17]: 1.82 µM (active)
IC50 [9]: 20.2 µM (active)
CC50 [10]: 36.1 µM (active)

CC1CCCC(/C=N/c2ccc(O)cc2)=C1O (stereo not given)
IC50 (Protein Tat): 30.8 µM (inconclusive)
IC50 [9]: 26.9 µM (active)

O=C(/C=C/c1ccc(Br)cc1)N1CCN(C(=O)c2cccc(B(O)O)c2)CC1
IC50 [18]: 0.0287 µM (active)

COc1cccc(S(=O)(=O)N2CCN(C(=O)/C=C/c3ccc(F)cc3)CC2)c1
IC50 [18]: 0.0521 µM (active)

COc1ccc2c3c([nH]c2c1)[C@H](CO)N(C(=O)C1CCOCC1)CC31CCN(Cc2nccs2)CC1
AC50 [19]: 2.43 µM (active)
AC50 [20]: 0.467 µM (active)
AC50 [21]: 0.387 µM (active)
AC50 [22]: 0.384 µM (active)

COc1ccc(Cl)cc1C(=O)NCCc1ccc(S(=O)(=O)NC(=O)NC2CCCCC2)cc1 [GLYBURIDE]
IC50 [23]: 0.00808 µM (active)
